Experimental data reported in US8138191B2, “Inhibitor compounds and cancer treatment methods” (Critical Outcome Technologies Inc., priority 2007, dated 2012).

How the values were obtained:
SHP77 cells [1] = test: siRNA target knock-down with COTI-219, cell viability by trypan blue, SHP77; format: cell-based, human; conditions: SHP77, 500 nM, 48 h
Protocol: In brief, cells DMS114 and SHP77 cells were transfected with gene specific siRNA in the presence or absence of COTI-219 and cell viability determined after 24 to 48 h post-incubation using the trypan blue exclusion method.
Cell cultures were maintained under regular tissue culture conditions and passaged 1-2 times a week as recommended by ATCC. With the exception of the siRNA for Bim (Signal Silence Bim siRNA kit #6460 from Cell Signaling), all other siRNA reagents for gene knock-down experiments was obtained from Ambion (Silencer Negative Control #1 siRNA #AM4611, CDK2 Silencer Select #s204, HRAS Silencer Select #s807, Protein kinase C alpha Silencer Validated #301, MAPK3/Erk Silencer Pre-designed #214749, EGFR Silencer Select #s563, and ERBB2 Silencer Select #s611). […] The transfection method required optimization such that a knock-down of the target gene greater than ˜75% was achieved and confirmed by western blot analyses. […] Following an optimal knock-down level at >75%, 2×10^5 cells were incubated with 500 nM COTI-219 and number of viable cells was measured at 48 h.
Cell viability assays were performed 24 to 48 h following incubation with COTI-219 by the trypan blue exclusion method using a Beckman-Coulter Vi-CELL XR 2.03 automated cell counter. Routine laboratory methods were employed for the production of cellular lysates, protein quantitation, SDS-PAGE and western blotting. […]

SHP77 cells [2] = test: Western blots of cellular lysates of SHP77 cells treated with COTI-2; format: cell-based, human; conditions: 250 nM
Protocol: To confirm this mechanism SHP77 cells were treated with 250 nM of COTI-2 and incubated for 3 and 6 hours. Phospho-Akt expression was decreased as compared to control at both 3 and 6 hours, with corresponding increases in Akt levels.

[3] = tested on: total Akt protein in DMS-114 cells; test: Total Akt by western blot analysis, DMS-114; format: cell-based, human; conditions: DMS-114, 250 nM, after 24 hrs
Protocol: Cell viability was determined at 24, 48, and 96 hrs by the trypan exclusion method. Whole cell lysates were prepared using standard procedures and fifty micrograms of lysate protein was separated on SDS-PAGE gels and analyzed by western blotting.
Cell viability was determined at 24, 48, and 96 h by the trypan exclusion method. Whole cell lysates were prepared using standard procedures and 50 μg of lysate protein was separated on SDS-PAGE gels and analyzed by western blotting.

[4] = Metabolic Stability (liver microsomes, dog, Beagle); format: in vitro ADME; conditions: 1.0E−06 M, 60 min
Protocol: Metabolic stability was determined in human (mixed gender and pool of 50) monkey (male Cynomolgus, pool of 6 or more), dog male, beagle, pool of 4 or more) and rat (male Sprague-Dawley, pool of 100 or more) liver microsomes. […] Four reference substrates (1 μM) were tested simultaneously with COTI-2. […] Peak areas corresponding to COTI-2 were recorded by HPLC-MS/MS. Metabolic stability, expressed as percent of COTI-2 remaining, was calculated by comparing the peak area of COTI-2 at 60 min to time zero.

CYP2C19 = CYP2C19 (Homo sapiens, UniProt P33261); test: in vitro; conditions: both
Sequence of CYP2C19 (P33261 whole entry): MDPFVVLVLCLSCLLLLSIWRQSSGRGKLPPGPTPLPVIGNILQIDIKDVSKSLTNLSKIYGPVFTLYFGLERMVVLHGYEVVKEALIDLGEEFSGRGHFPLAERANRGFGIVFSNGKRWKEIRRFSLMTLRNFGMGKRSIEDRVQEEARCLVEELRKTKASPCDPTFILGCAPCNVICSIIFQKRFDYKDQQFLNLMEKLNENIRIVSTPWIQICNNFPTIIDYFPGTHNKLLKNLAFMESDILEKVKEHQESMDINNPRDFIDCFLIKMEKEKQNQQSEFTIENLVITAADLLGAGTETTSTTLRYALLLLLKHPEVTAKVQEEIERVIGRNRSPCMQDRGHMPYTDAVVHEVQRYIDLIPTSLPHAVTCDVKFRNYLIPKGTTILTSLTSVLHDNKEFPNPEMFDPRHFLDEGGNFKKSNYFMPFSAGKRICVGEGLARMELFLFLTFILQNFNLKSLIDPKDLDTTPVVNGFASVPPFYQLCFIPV

[5] = tested on: A549, H460, DMS114 and SHP77 cells; test: Western blot of total mTOR, mTOR phospho-Ser2448/Ser2481 and Akt phospho-Thr308; format: cell-based, human; conditions: 4 h
H226 = test: Flow cytometric analysis of cell death (Annexin V/PI), H226; format: cell-based, human; conditions: H226, 15 μM, 48 h
Protocol: All cell lines were grown and exposed to various concentrations of COTI-2 or vehicle only control and the percentage of dead or dying cells were determined 24 and 48 h post-exposure by Annexin V and propidium iodide.
HL-60 (human promyelocytic leukemia) cells were grown as non-adherent cells in flasks in RPMI 1640 medium supplemented with 10% FBS. H226 (human non-small cell lung cancer) cells were grown in Eagle's MEM supplemented with 10% FBS. Both cell lines were obtained from the American Type Culture Collection (ATCC)(Rockville, Md.) and maintained at 37° C. in a humidified 5% CO2 atmosphere.
Cells were plated in 25-cm^2 flasks and treated with COTI-2 (0-100 μM) added from a stock DMSO/DMEM solution such that DMSO concentrations never exceeded 0.5%. Control cells were treated with stock DMSO/DMEM. […] Resuspended cells (100 μl) were incubated in the dark with 10 μl propidium iodide (PI, 50 ng per ml; Sigma, St. Louis, Mo.) plus Annexin V-FITC (25 ng per ml, green fluorescence; BD Biosciences, Mississauga, Ontario). […] Samples were analyzed for combined Annexin V/PI staining (to assess dead plus apoptotic cells) using a Beckman Coulter EPCS XL-MCL flow cytometer (Beckman Coulter, Hileah, Fla.) and the data were analyzed with CellQuest software.

CYP1A = CYP1A (Homo sapiens, UniProt P05177); test: in vitro; conditions: both
Sequence of CYP1A (P05177 whole entry): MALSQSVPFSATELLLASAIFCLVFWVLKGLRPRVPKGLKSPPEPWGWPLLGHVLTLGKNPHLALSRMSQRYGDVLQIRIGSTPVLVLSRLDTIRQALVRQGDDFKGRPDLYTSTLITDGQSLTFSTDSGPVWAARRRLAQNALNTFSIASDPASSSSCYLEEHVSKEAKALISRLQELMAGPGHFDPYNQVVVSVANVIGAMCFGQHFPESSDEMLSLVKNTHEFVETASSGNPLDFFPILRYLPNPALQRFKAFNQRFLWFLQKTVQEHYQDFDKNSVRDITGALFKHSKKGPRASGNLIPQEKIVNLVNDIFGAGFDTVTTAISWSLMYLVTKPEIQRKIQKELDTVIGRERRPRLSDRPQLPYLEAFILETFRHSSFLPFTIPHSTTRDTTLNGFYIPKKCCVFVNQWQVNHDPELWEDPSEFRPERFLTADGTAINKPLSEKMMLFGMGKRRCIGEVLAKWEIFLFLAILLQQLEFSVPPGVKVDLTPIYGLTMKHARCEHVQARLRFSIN

CYP3A = CYP3A (Homo sapiens, UniProt P08684); test: in vitro; conditions: both
Sequence of CYP3A (P08684 2-503): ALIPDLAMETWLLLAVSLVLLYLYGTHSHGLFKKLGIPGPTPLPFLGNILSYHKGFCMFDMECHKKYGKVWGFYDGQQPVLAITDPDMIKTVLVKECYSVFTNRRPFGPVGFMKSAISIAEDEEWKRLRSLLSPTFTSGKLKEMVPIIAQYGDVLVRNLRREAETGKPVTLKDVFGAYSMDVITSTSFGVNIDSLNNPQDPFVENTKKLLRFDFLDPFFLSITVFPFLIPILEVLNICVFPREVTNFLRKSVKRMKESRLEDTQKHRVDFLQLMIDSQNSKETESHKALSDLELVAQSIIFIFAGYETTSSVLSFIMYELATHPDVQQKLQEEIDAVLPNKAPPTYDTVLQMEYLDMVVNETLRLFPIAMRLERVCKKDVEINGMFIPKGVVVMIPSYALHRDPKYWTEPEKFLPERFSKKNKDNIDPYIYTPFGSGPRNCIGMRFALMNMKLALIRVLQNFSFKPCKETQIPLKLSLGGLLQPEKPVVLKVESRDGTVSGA

| SMILES | target knock-downs suppressing the apoptotic/cell growth inhibitory effect of COTI-219 (SHP77 cells [1]) | Caspase 8 level of expression (SHP77 cells [2]) | phospho-STAT3 expression (SHP77 cells [2]) | Phospho-Akt expression (SHP77 cells [2]; 3 and 6 hours) | phospho-Caspase 9 (SHP77 cells [2]; 3 and 6 hrs) | decrease in total STAT3 (SHP77 cells [2]; 6 hrs) [%] | total Akt protein [3] | Mean Parent Remaining [4] [%] | inhibition at 15 min, 10 µM (CYP2C19; human liver microsomes, pH 7.4, probe omeprazole (10 µM)) [%] | inhibition at 15 min, 10 µM (CYP2C19; liver microsomes, pH 7.4, probe omeprazole) [%] | PKB/Akt phospho-Thr308 levels ([5]; A549 cells) | mTOR phospho-Ser2448 level ([5]; SHP77 cells) | induction of apoptosis and death (H226) | inhibition at 15 min, 10 µM (CYP1A; human liver microsomes, pH 7.4, probe phenacetin (10 µM)) [%] | inhibition at 15 min, 10 µM (CYP1A; liver microsomes, pH 7.4, probe phenacetin) [%] | inhibition at 15 min, 10 µM (CYP3A; human liver microsomes, pH 7.4, probe testosterone (10 µM)) [%] | inhibition at 15 min, 10 µM (CYP3A; liver microsomes, pH 7.4, probe testosterone) [%] |
| --- | --- | --- | --- | --- | --- | --- | --- | --- | --- | --- | --- | --- | --- | --- | --- | --- | --- |
| CN1CCN(C(=S)NN=C2c3ncccc3-c3cccnc32)CC1 [COTI-219] | not only Ras but Erbb2, Erk1, and PKC-α all suppressed |  |  |  |  |  |  |  |  |  |  |  |  |  |  |  |  |
| S=C(N/N=C1/CCCc2cccnc21)N1CCN(c2ccccn2)CC1 [COTI-2] |  | remained constant | no change | decreased | profound suppression | ~30 | decreased | 5 | 4 | < 50 | decreased | reduced | approximately 40% | -2 | < 50 | -4 | < 50 |
